In ChEMBL document CHEMBL1129127, “Potent and selective PKC inhibitory 5-membered ring analogs of balanol with replacement of the carboxamide moiety” (Bioorg Med Chem Lett, 1996):

What was measured:
[1] = species: Homo sapiens; assay: Inhibition of cellular activity by neutrophil assay; type: functional
[2] = Inhibition of protein kinase A.
[3] = molecular target: Protein kinase C alpha type (Homo sapiens, UniProt P17252); assay: Inhibition of protein kinase C alpha
[4] = molecular target: T1, Protein kinase C beta type (Homo sapiens, UniProt P05771); assay: Inhibition of protein kinase C beta I
[5] = molecular target: T1, Protein kinase C beta type; assay: Inhibition of protein kinase C beta II
[6] = molecular target: Protein kinase C delta type (Homo sapiens, UniProt Q05655); assay: Inhibition of protein kinase C delta
[7] = molecular target: T2, Protein kinase C epsilon type (Homo sapiens, UniProt Q02156); assay: Inhibition of protein kinase C epsilon
T2 sequence (Q02156 whole entry): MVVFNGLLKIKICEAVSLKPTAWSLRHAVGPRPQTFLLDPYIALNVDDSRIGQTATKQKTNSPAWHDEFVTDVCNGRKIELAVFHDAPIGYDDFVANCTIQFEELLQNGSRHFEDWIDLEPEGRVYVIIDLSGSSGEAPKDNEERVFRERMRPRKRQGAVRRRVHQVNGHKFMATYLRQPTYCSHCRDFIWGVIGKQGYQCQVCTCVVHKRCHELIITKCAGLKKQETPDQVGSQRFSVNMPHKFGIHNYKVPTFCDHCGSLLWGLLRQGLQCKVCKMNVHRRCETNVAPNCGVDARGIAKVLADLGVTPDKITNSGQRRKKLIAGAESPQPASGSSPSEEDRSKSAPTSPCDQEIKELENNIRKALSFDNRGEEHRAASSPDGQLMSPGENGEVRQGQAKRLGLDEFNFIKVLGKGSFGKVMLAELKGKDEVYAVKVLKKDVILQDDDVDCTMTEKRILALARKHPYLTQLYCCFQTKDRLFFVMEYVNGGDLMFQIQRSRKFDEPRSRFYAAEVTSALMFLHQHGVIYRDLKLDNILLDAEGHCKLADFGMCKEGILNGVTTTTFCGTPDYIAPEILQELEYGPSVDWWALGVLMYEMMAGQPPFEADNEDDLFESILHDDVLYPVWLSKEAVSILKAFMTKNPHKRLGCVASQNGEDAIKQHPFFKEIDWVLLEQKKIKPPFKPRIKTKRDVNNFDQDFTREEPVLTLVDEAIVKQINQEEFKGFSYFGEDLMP

[8] = molecular target: Protein kinase C eta type (Homo sapiens, UniProt P24723); assay: Inhibition of protein kinase C eta
[9] = molecular target: Protein kinase C gamma type (Homo sapiens, UniProt P05129); assay: Inhibition of protein kinase C gamma

T1 sequence (P05771 whole entry): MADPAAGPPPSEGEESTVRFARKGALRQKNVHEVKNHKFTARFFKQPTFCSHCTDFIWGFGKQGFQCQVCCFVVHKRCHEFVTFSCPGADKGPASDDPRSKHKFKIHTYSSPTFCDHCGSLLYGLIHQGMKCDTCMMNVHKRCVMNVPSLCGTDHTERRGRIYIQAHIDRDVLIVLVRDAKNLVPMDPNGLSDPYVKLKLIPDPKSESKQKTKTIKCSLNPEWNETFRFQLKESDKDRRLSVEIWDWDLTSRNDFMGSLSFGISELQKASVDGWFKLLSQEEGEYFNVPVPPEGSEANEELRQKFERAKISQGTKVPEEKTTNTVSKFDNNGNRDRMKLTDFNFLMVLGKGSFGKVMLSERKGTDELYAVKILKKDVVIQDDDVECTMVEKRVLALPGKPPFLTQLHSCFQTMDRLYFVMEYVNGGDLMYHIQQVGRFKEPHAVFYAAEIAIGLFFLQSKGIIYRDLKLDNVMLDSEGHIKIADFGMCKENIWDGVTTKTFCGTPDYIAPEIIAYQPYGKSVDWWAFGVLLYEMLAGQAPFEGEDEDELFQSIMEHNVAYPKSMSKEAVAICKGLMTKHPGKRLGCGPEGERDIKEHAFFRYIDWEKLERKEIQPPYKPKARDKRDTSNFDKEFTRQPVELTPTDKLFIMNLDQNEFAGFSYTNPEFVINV
Chain of Protein kinase C eta type (P24723 whole entry): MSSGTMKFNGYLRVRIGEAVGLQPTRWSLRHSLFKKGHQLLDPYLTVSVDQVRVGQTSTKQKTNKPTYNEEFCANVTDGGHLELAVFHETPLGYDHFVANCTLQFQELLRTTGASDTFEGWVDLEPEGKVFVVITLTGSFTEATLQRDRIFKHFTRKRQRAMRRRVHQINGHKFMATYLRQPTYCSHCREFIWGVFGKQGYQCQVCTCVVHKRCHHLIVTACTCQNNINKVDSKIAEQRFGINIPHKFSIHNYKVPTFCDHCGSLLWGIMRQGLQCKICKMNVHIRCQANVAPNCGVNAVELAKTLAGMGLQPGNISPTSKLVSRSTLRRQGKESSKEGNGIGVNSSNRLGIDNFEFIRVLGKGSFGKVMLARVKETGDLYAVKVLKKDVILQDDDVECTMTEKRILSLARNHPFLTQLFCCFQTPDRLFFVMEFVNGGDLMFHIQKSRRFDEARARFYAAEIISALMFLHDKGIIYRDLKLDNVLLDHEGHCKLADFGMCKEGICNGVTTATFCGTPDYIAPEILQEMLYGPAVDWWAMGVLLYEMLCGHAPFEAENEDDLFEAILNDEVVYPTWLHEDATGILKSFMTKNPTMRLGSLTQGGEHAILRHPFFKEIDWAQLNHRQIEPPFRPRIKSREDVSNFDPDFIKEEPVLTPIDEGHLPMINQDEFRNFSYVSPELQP
Chain of Protein kinase C delta type (Q05655 whole entry): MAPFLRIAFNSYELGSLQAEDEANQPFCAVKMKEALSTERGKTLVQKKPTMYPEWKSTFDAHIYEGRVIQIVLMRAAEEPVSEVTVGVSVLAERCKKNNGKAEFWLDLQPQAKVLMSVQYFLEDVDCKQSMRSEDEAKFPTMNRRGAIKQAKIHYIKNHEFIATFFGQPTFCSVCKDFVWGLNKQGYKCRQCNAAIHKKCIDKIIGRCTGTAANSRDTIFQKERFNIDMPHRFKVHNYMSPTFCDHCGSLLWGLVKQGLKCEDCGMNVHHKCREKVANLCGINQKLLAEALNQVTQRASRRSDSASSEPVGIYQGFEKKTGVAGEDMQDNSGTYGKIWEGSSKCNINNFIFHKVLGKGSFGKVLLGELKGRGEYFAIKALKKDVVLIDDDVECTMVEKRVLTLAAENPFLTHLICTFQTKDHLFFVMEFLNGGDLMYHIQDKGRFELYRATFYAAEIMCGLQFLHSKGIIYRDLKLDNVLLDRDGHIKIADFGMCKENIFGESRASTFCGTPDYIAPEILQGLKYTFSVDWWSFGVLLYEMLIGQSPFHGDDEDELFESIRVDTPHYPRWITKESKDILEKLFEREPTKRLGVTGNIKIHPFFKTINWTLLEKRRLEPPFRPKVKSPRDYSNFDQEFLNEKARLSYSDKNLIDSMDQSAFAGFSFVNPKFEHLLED

| IC50 ([1]; Homo sapiens) [µM] | IC50 [2] [µM] | IC50 [6] [µM] | IC50 [8] [µM] | IC50 [9] [µM] | Structure (SMILES) | other results |
| --- | --- | --- | --- | --- | --- | --- |
| > 10 | 0.07 | 0.005 | 0.004 | 0.012 | O=C(NC1CNCC1OC(=O)c1cc(O)c(C(=O)c2c(O)cccc2C(=O)O)c(O)c1)c1ccc(O)cc1 (stereo not drawn) | IC50 [3]: 0.022 µM; IC50 [4]: 0.01 µM; IC50 [5]: 0.033 µM; IC50 [7]: 0.01 µM |
| > 10 | 0.32 | 0.005 | 0.02 | 0.04 | O=C(OC1CNCC1Cc1ccc(O)cc1)c1cc(O)c(C(=O)c2c(O)cccc2C(=O)O)c(O)c1 (stereo not drawn) | IC50 [7]: 1.8 µM |
| – | – | – | 0.05 | – | COC(=O)c1cccc(O)c1C(=O)c1c(O)cc(C(=O)OC2CNCC2Cc2ccc(O)cc2)cc1O (stereo not drawn) | – |
| > 10 | – | 0.001 | 0.001 | – | O=C(NC1CCCC1OC(=O)c1cc(O)c(C(=O)c2c(O)cccc2C(=O)O)c(O)c1)c1ccc(O)cc1 (stereo not drawn) | – |
| – | > 50 | – | – | – | COC(=O)c1cccc(O)c1C(=O)c1c(O)cc(C(=O)OC2CCCC2Cc2ccc(O)cc2)cc1O (stereo not drawn) | – |
| – | 50 | – | – | – | O=C(OC1CCCC1Oc1ccc(O)cc1)c1cc(O)c(C(=O)c2c(O)cccc2C(=O)O)c(O)c1 (stereo not drawn) | – |
| > 10 | 0.06 | – | – | – | O=C(NC1CNCCCC1OC(=O)c1cc(O)c(C(=O)c2c(O)cccc2C(=O)O)c(O)c1)c1ccc(O)cc1 (racemic) | – |
| – | 0.04 | 0.016 | 0.003 | 0.01 | O=C(NC1CNCCCC1OC(=O)c1cc(O)c(C(=O)c2c(O)cccc2C(=O)O)c(O)c1)c1ccc(O)cc1 (single isomer, unassigned; (-)) | IC50 [3]: 0.03 µM; IC50 [4]: 0.01 µM; IC50 [5]: 0.01 µM |
| – | > 50 | – | – | – | O=C(OC1CCCC1Cc1ccc(O)cc1)c1cc(O)c(C(=O)c2c(O)cccc2C(=O)O)c(O)c1 (stereo in doubt; anti) | IC50 [1]: 3.1 µM |
| – | – | – | – | – | O=C(OC1CCCC1Cc1ccc(O)cc1)c1cc(O)c(C(=O)c2c(O)cccc2C(=O)O)c(O)c1 (stereo in doubt; syn) | IC50 [1]: 10 µM |
